# Where two headings read alike, the source gives them in different places.
# What was measured:
# [1] = Study on stability of Crystal form I, II and III (influencing factors; character, moisture content, relevant substances by HPLC, XRPD); type: physicochemical; conditions: for Stability of the samples (conclusion): influencing factor conditions (high temperature, high moisture, light)
# Method: The samples were tested for character, relevant substances, moisture content, XRPD pattern, etc. […] The samples were tested for relevant substances, content, character, moisture content, XRPD pattern, etc. During the study, the uncovered experimental samples were kept in cultured dishes in the air. […] During the study, the uncovered experimental samples were kept in cultured dishes in the air. […] With respect to relevant substances, in accordance with High Performance Liquid Chromatography in Appendix V D in Pharmacopoeia of the People's Republic of China (2010), the samples were determined by area normalization method. Instrument: High Performance Liquid Chromatographic Instrument (Agilent 1200/1260 series) Chromatographic column: chromatographic column using octylsilane chemically bonded silica as filler (HC-C8, 4.6×250 mm, 5 μm) Column temperature: 30° C. Detection wavelength: 230 nm Mobile phase: mobile phase consisting of 0.03 mol/L diammonium hydrogen phosphate/0.03 mol/L sodium perchlorate solution-acetonitrile, and reversed-phase gradient elution was employed. Flow rate: 1.0 mL/min Injection volume: 10 μL Method for determining moisture content: the moisture content was determined in accordance with First Method for Determining Moisture Content B (Coulometric Titration) in Appendix VIII M in Pharmacopoeia of the People's Republic of China (2010).
# [2] = Evaluation on pharmacokinetics in SD rats, intragastric administration; type: in vivo; conditions: 5 mg/kg
# Method: An amorphous form of a compound of Formula (I), the preparation method of which could be found in the particular Examples as disclosed in the international patent application (Publication No. WO 2012027960 A1).
# Test animal: SD rats, male, weighed 190-250 g, 6 rats for each crystal form, purchased from Beijing Vital River Laboratory Animal Technology Co., Ltd.
# Administration route: intragastric administration, at an administration dose of 5 mg/kg, and an administration volume of 10 mL/kg.
# Blood collection: whole blood (about 100 μL) was collected from tail vein 10 min, 30 min, 1 h, 2 h, 4 h, 6 h, 8 h, and 24 h after administration, and added to K2EDTA-containing anticoagulation tubes. The whole blood sample was centrifuged for 6 min at 4° C., 8000 rpm in a high speed centrifuge, and plasma was separated. Plasma needed to be prepared within 30 min after blood collection, and stored at −80° C. in a refrigerator.
# Plasma sample analysis: the plasma samples were analyzed by protein precipitation: to plasma (20 μL), an internal standard Gefitinib (200 μL, 50 ng/mL acetonitrile solution) was added; the resultant mixture was vortexed at 500 rpm for 5 min, and centrifuged at 4000 rpm for 20 min in a high speed centrifuge; to the supernatant (100 μL), water (100 μL) was added; the resultant mixture was mixed homogeneously under vortexing and analyzed by LC-MS/MS for blood concentration.
# Calculation for PK parameters: PK parameters were calculated by using Pharsight Phoenix 6.2 software.
# [3] = Comparison of stability between crystal forms and amorphous form, 60° C. uncovered, relevant substances by HPLC; type: physicochemical; conditions: for Change in total relevant substances (conclusion) / Increase of total relevant substances: 60° C. uncovered; for Change in total relevant substances (conclusion): 5 days and 10 days
# Method: Instrument: High Performance Liquid Chromatographic Instrument (Agilent 1260 series) Chromatographic column: chromatographic column using octylsilane chemically bonded silica as filler (HC-C8, 4.6×250 mm, 5 μm) Column temperature: 30° C. Detection wavelength: 230 nm Mobile phase: Mobile phase consisting of 0.06 mol/L sodium dihydrogen phosphate/0.06 mol/L sodium perchlorate solution-acetonitrile, and reversed-phase gradient elution was employed. Flow rate: 1.0 mL/min Injection volume: 10 μL
# [4] = 10 days, 40° C./RH75% uncovered
smiles,measurement,setting,value
"C=CC(=O)Nc1cc2c(Nc3ccc(F)c(Cl)c3)ncnc2cc1OCC1CC2(CCN(C)CC2)C1 [Crystal form III, N-(4-((3-chloro-4-fluorophenyl)amino)-7-((7-methyl-7-azaspiro[3.5]nonan-2-yl)methoxy)quinazolin-6-yl)acrylamide]",Character,[1]; 0 day,light yellow powder
same,Moisture content,[1]; 0 day,3.5%
same,Total relevant substances,[1]; 0 day,0.66%
same,Increase of total relevant substances,"[1]; 60° C. uncovered, 5 days vs Day 0",0.28%
same,Increase of total relevant substances,"[1]; 60° C. uncovered, 10 days vs Day 0",0.44%
same,Character,"[1]; 5 days, 40° C./RH75% covered",light yellow powder
same,Moisture content,"[1]; 5 days, 40° C./RH75% covered",3.6%
same,Total relevant substances,"[1]; 5 days, 40° C./RH75% covered",0.57%
same,Character,"[1]; 5 days, 40° C./RH75% uncovered",light yellow powder
same,Moisture content,"[1]; 5 days, 40° C./RH75% uncovered",3.9%
same,Total relevant substances,"[1]; 5 days, 40° C./RH75% uncovered",0.63%
same,Character,"[1]; 5 days, 60° C. covered",light yellow powder
same,Moisture content,"[1]; 5 days, 60° C. covered",3.6%
same,Total relevant substances,"[1]; 5 days, 60° C. covered",0.60%
same,Character,"[1]; 5 days, 60° C. uncovered",light yellow powder
same,Moisture content,"[1]; 5 days, 60° C. uncovered",3.5%
same,Total relevant substances,"[1]; 5 days, 60° C. uncovered",0.94%
same,Character,"[1]; 5 days, RH-75%",light yellow powder
same,Moisture content,"[1]; 5 days, RH-75%",4.0%
same,Total relevant substances,"[1]; 5 days, RH-75%",0.62%
same,Character,"[1]; 5 days, RH-92.5%",light yellow powder
same,Moisture content,"[1]; 5 days, RH-92.5%",4.0%
same,Total relevant substances,"[1]; 5 days, RH-92.5%",0.58%
same,Character,"[1]; 5 days, visible light",light yellow powder
same,Moisture content,"[1]; 5 days, visible light",3.7%
same,Total relevant substances,"[1]; 5 days, visible light",0.68%
same,Character,"[1]; 10 days, 40° C./RH75% covered",light yellow powder
same,Moisture content,"[1]; 10 days, 40° C./RH75% covered",3.6%
same,Total relevant substances,"[1]; 10 days, 40° C./RH75% covered",0.59%
same,Character,[1]; [4],light yellow powder
same,Moisture content,[1]; [4],3.9%
same,Total relevant substances,[1]; [4],0.62%
same,Character,"[1]; 10 days, 60° C. covered",light yellow powder
same,Moisture content,"[1]; 10 days, 60° C. covered",3.5%
same,Total relevant substances,"[1]; 10 days, 60° C. covered",0.64%
same,Character,"[1]; 10 days, 60° C. uncovered",light yellow powder
same,Moisture content,"[1]; 10 days, 60° C. uncovered",3.4%
same,Total relevant substances,"[1]; 10 days, 60° C. uncovered",1.1%
same,Character,"[1]; 10 days, RH-75%",light yellow powder
same,Moisture content,"[1]; 10 days, RH-75%",3.8%
same,Total relevant substances,"[1]; 10 days, RH-75%",0.56%
same,Character,"[1]; 10 days, RH-92.5%",light yellow powder
same,Moisture content,"[1]; 10 days, RH-92.5%",4.3%
same,Total relevant substances,"[1]; 10 days, RH-92.5%",0.60%
same,Character,"[1]; 10 days, UV light",light yellow powder
same,Moisture content,"[1]; 10 days, UV light",3.8%
same,Total relevant substances,"[1]; 10 days, UV light",0.70%
same,Stability of the samples (conclusion),[1]; 10 days,good stability
same,Pharmacokinetic properties (conclusion),[2],good pharmacokinetic properties
same,AUC0-t,[2]; suspension in water,1324 ng·h/mL
same,AUCinf,[2]; suspension in water,1340 ng·h/mL
same,Cmax (maximum blood concentration),[2]; suspension in water,134 ng/mL
same,T1/2 (drug elimination half-life),[2]; suspension in water,3.35 h
same,Tmax (time to maximum blood concentration),[2]; suspension in water,4 h
same,Total relevant substances,[3]; 0 day,0.81%
same,Change in total relevant substances (conclusion),[3],little increase in total relevant substances
same,Total relevant substances,[3]; 60° C. uncovered-5 days,1.1%
same,Total relevant substances,[3]; 60° C. uncovered-10 days,2.0%
"C=CC(=O)Nc1cc2c(Nc3ccc(F)c(Cl)c3)ncnc2cc1OCC1CC2(CCN(C)CC2)C1 [Crystal form I, N-(4-((3-chloro-4-fluorophenyl)amino)-7-((7-methyl-7-azaspiro[3.5]nonan-2-yl)methoxy)quinazolin-6-yl)acrylamide]",Character,[1]; 0 day,light yellow
same,Crystal form,[1]; 0 day,crystal-
same,Moisture content,[1]; 0 day,5.0%
same,Relevant substance,[1]; 0 day,0.78%
same,Change in impurities,"[1]; 60° C.-uncovered, UV light, 10 days",increased to some extent
same,Character,"[1]; 5 days, 40° C./RH75% covered",light yellow
same,Crystal form,"[1]; 5 days, 40° C./RH75% covered",the same
same,Moisture content,"[1]; 5 days, 40° C./RH75% covered",5.1%
same,Relevant substance,"[1]; 5 days, 40° C./RH75% covered",0.74%
same,Character,"[1]; 5 days, 40° C./RH75% uncovered",light yellow
same,Crystal form,"[1]; 5 days, 40° C./RH75% uncovered",the same
same,Moisture content,"[1]; 5 days, 40° C./RH75% uncovered",5.4%
same,Relevant substance,"[1]; 5 days, 40° C./RH75% uncovered",0.76%
same,Character,"[1]; 5 days, 60° C. covered",light yellow
same,Crystal form,"[1]; 5 days, 60° C. covered",the same
same,Moisture content,"[1]; 5 days, 60° C. covered",5.0%
same,Relevant substance,"[1]; 5 days, 60° C. covered",0.75%
same,Character,"[1]; 5 days, 60° C. uncovered",light yellow
same,Crystal form,"[1]; 5 days, 60° C. uncovered",the same
same,Moisture content,"[1]; 5 days, 60° C. uncovered",4.9%
same,Relevant substance,"[1]; 5 days, 60° C. uncovered",1.3%
same,Character,"[1]; 5 days, RH-75%",light yellow
same,Crystal form,"[1]; 5 days, RH-75%",the same
same,Moisture content,"[1]; 5 days, RH-75%",5.5%
same,Relevant substance,"[1]; 5 days, RH-75%",0.78%
same,Character,"[1]; 5 days, RH-92.5%",light yellow
same,Crystal form,"[1]; 5 days, RH-92.5%",the same
same,Moisture content,"[1]; 5 days, RH-92.5%",5.5%
same,Relevant substance,"[1]; 5 days, RH-92.5%",0.78%
same,Character,"[1]; 5 days, visible light",light yellow
same,Crystal form,"[1]; 5 days, visible light",the same
same,Moisture content,"[1]; 5 days, visible light",5.1%
same,Relevant substance,"[1]; 5 days, visible light",0.74%
same,Character,"[1]; 10 days, 40° C./RH75% covered",light yellow
same,Crystal form,"[1]; 10 days, 40° C./RH75% covered",the same
same,Moisture content,"[1]; 10 days, 40° C./RH75% covered",4.9%
same,Relevant substance,"[1]; 10 days, 40° C./RH75% covered",0.73%
same,Character,[1]; [4],light yellow
same,Crystal form,[1]; [4],the same
same,Moisture content,[1]; [4],5.2%
same,Relevant substance,[1]; [4],0.79%
same,Character,"[1]; 10 days, 60° C. covered",light yellow
same,Crystal form,"[1]; 10 days, 60° C. covered",the same
same,Moisture content,"[1]; 10 days, 60° C. covered",4.8%
same,Relevant substance,"[1]; 10 days, 60° C. covered",0.78%
same,Character,"[1]; 10 days, 60° C. uncovered",light yellow
same,Crystal form,"[1]; 10 days, 60° C. uncovered",the same
same,Moisture content,"[1]; 10 days, 60° C. uncovered",4.6%
same,Relevant substance,"[1]; 10 days, 60° C. uncovered",1.4%
same,Character,"[1]; 10 days, RH-75%",light yellow
same,Crystal form,"[1]; 10 days, RH-75%",the same
same,Moisture content,"[1]; 10 days, RH-75%",5.7%
same,Relevant substance,"[1]; 10 days, RH-75%",0.70%
same,Character,"[1]; 10 days, RH-92.5%",light yellow
same,Crystal form,"[1]; 10 days, RH-92.5%",the same
same,Moisture content,"[1]; 10 days, RH-92.5%",5.8%
same,Relevant substance,"[1]; 10 days, RH-92.5%",0.79%
same,Character,"[1]; 10 days, UV light",light yellow
same,Crystal form,"[1]; 10 days, UV light",the same
same,Moisture content,"[1]; 10 days, UV light",5.2%
same,Relevant substance,"[1]; 10 days, UV light",0.89%
same,Increase of moisture content,"[1]; high moisture RH-75%, 10 days vs Day 0",0.7%
same,Increase of moisture content,"[1]; high moisture RH-92.5%, 10 days vs Day 0",0.8%
same,Stability of the samples (conclusion),[1]; 10 days,relatively stable
same,Pharmacokinetic properties (conclusion),[2],good pharmacokinetic properties
same,AUC0-t,[2]; suspension in water,1404 ng·h/mL
same,AUCinf,[2]; suspension in water,1414 ng·h/mL
same,Cmax (maximum blood concentration),[2]; suspension in water,134 ng/mL
same,T1/2 (drug elimination half-life),[2]; suspension in water,3.16 h
same,Tmax (time to maximum blood concentration),[2]; suspension in water,4 h
same,Total relevant substances,[3]; 0 day,0.23%
same,Change in total relevant substances (conclusion),[3],little increase in total relevant substances
same,Total relevant substances,[3]; 60° C. uncovered-5 days,0.48%
same,Total relevant substances,[3]; 60° C. uncovered-10 days,0.47%
"C=CC(=O)Nc1cc2c(Nc3ccc(F)c(Cl)c3)ncnc2cc1OCC1CC2(CCN(C)CC2)C1 [Amorphous form, N-(4-((3-chloro-4-fluorophenyl)amino)-7-((7-methyl-7-azaspiro[3.5]nonan-2-yl)methoxy)quinazolin-6-yl)acrylamide]","Cmax and exposure amount (AUC) compared with Crystal form I, II and III",[2],significantly lower
same,"In vivo half-life compared with Crystal form I, II and III",[2],shorter
same,AUC(0-inf),"[2]; male, SD, rat, plasma, po, suspension in water",1150 ng·h/mL
same,AUC0-t,"[2]; male, SD, rat, plasma, po, suspension in water, read-out: AUC0-t",1140 ng·h/mL
same,Cmax,"[2]; male, SD, rat, plasma, po, suspension in water, read-out: Cmax (maximum blood concentration)",105 ng/mL
same,half-life,"[2]; male, SD, rat, plasma, po, suspension in water, read-out: T1/2 (drug elimination half-life) (converted)",3.08 h
same,Tmax,"[2]; male, SD, rat, plasma, po, suspension in water, read-out: Tmax (time to maximum blood concentration)",4 h
same,Total relevant substances,[3]; 0 day,1.1%
same,Change in total relevant substances (conclusion),[3],rapid increase in total relevant substances
same,Increase of total relevant substances,[3]; 5 days vs Day 0,1.3%
same,Increase of total relevant substances,[3]; 10 days vs Day 0,2.1%
same,Total relevant substances,[3]; 60° C. uncovered-5 days,2.4%
same,Total relevant substances,[3]; 60° C. uncovered-10 days,3.2%
